Experimental data taken from patent US4960900A, “Oxyimino derivatives of thiazole, method of preparation and use in therapy” (priority 1987, dated 1990).
Where two headings read alike, the source gives them in different places.

How the values were obtained:
[1] = in vivo; conditions: mouse, in vivo, po; for selectivity ratio: LD50 per os/ED50 per os
Protocol: (§1) The toxicity of the products to be studied was investigated by the oral administration, using an esophageal tube, of each of the said products to male mice with a body weight of 18 to 22 g, divided into groups each containing 10 to 20 animals. The mortality was recorded over a 14-day period.
(§2) The results obtained, which are expressed in the form of LD50 in mg/kg, are collated in Table II below.

[2] = test system: convulsions induced by supramaximal electroshock (MCE); assay: Anticonvulsant properties: convulsions induced by supramaximal electroshock (MCE), oral, mice; format: in vivo; conditions: per os, male mice, 30 min after administration; for ED50: Mus musculus, po, 0.5 h, read-out: ED50 in respect of convulsions induced by MCE
Excerpt: MCE: supramaximal electroshock;
*: ED50 in mg/kg, determined per os on groups each containing ten

[3] = test system: convulsions induced by pentetrazole (PTZ); assay: Anticonvulsant properties: convulsions induced by pentetrazole (PTZ), oral, mice; format: in vivo; conditions: per os, male mice, 30 min after administration, pentetrazole 125 mg/kg i.p.; for ED50: Mus musculus, po, 0.5 h, read-out: ED50 in respect of convulsions induced by PTZ
[4] = in vivo; format: in vivo; conditions: mouse, in vivo, po
Protocol: (§3) The neurotoxic properties were assessed on male mice by the so-called "Rota-rod" test carried out thirty minutes after the oral administration of the substances to be studied. The animals (divided into groups each containing ten male mice per dose and per product) are installed on the rod and their fall is observed over the next two minutes.
(§4) The results obtained are expressed in the form of the 50% neurotoxic dose (TD50) per os, which is the dose causing 50% of the animals to fall.
(§5) Protection index: TD50 per os/ED50 per os
(§6) *dose determined per os on groups each containing ten male mice.

[5] = test system: male mice; assay: in vivo; conditions: for LD50: male mice
Protocol: as §1, §2

[6] = test system: male mice; assay: in vivo; format: in vivo
Protocol: as §3, §4, §5, §6

[7] = test system: convulsive seizures; assay: Anticonvulsant properties in mice, overall statement (PTZ and MCE); format: in vivo, male mice; conditions: for most effective products according to the invention: in view of protection and therapeutic indices, Table IV
Protocol: The anticonvulsant properties were investigated on male mice, thirty minutes after the oral administration of the substances to be studied, by the induction of convulsive seizures.
These seizures are caused either by the intraperitoneal injection of pentetrazole (125 mg/kg) or by electrical stimulation of the cornea (supra-maximal electroshock, abbreviated to MCE).
The results, expressed in the form of the 50% effective dose (ED50) per os (dose protecting 50% of the animals), are collated in Table III below.

[8] = LD50, Table II, male mice, 14 days
[9] = TD50 per os/ED50 per os, MCE, read-out: Protection index MCE
[10] = TD50 per os/ED50 per os, PTZ, read-out: Protection index PTZ
[11] = versus sodium valproate and trimethadione
[12] = LD50, Table IV, per os, male mice
[13] = Rota-rod, per os, male mice, 30 min after administration, read-out: TD50

In the case of `CCON=C(C)c1scnc1C` [Ex. 4], the LD50 at 336 h [1, 8] is reported as 1000 mg/kg, the ED50 [2] is reported as 150 mg/kg and the ED50 [3] is reported as 120 mg/kg.

In the case of `CN1C(=O)OC(C)(C)C1=O` [TRIM, trimethadione, reference compound], the selectivity ratio ([1]; Therapeutic index MCE, MCE) is reported as 4.4, the selectivity ratio ([1]; Therapeutic index PTZ, PTZ) is reported as 8.7 and the ED50 [2] is reported as 500 mg/kg. For the same molecule, the selectivity ratio [4, 9] was 2 and the selectivity ratio [4, 10] was 4.

With `COC(=O)CON=C(C)c1scnc1C` [Ex. 18] the LD50 at 336 h [1, 8] was greater than 1000 mg/kg, the ED50 [2] was greater than 200 mg/kg and the ED50 [3] was greater than 200 mg/kg.

In the case of `CC(=NOCc1cccc(C(F)(F)F)c1)c1scnc1C` [Ex. 16], the “therapeutic indices compared with the reference products” value [5, 11] is reported as “better than those of the reference products”, the LD50 at 336 h [1, 8] is reported as greater than 1000 mg/kg and the LD50 at 336 h [1, 12] is reported as greater than 1000 mg/kg. It also gave a selectivity ratio ([1]; Therapeutic index PTZ, PTZ) greater than 10.4, an ED50 [2] greater than 200 mg/kg and an ED50 [3] of 96 mg/kg. For the same molecule, the “protection indices compared with the reference products” value [6, 11] was “better than those of the reference products”, the selectivity ratio [4, 10] was 15.6 and the TD50 at 0.5 h [4, 13] was 1500 mg/kg.

`CC(=NOCc1ccccc1C)c1scnc1C` [Ex. 15] gave an LD50 at 336 h [1, 8] greater than 1000 mg/kg and an ED50 [3] of 60 mg/kg.

In the case of `CC(=NOCc1ccccc1)c1scnc1C` [Ex. 11, 5-(1-benzyloxyiminoethyl)-4-methylthiazole], the “Therapeutic index PTZ” value ([5]; LD50 per os/ED50 per os) is reported as greater than 21.7, the LD50 ([5]; Table IV, per os, 20160 min) is reported as greater than 1000 mg/kg and the selectivity ratio ([1]; Therapeutic index MCE, MCE) is reported as greater than 12.8. The “ED50 in respect of convulsions induced by MCE” value (“ED50 … by MCE” for short) ([2]; 30 min) was 78 mg/kg, the “most effective products according to the invention” value [7] was “most effective” and the “ED50 in respect of convulsions induced by PTZ” value (“ED50 … by PTZ” for short) ([3]; 30 min) was 46 mg/kg. It also gave a selectivity ratio [4, 9] of 12.8, a selectivity ratio [4, 10] of 21.7 and a TD50 at 0.5 h [4, 13] of 1000 mg/kg.

In the case of `CC(=NOCc1ccccc1)c1scnc1C` [Ex. 12], the “Therapeutic index MCE” value ([5]; LD50 per os/ED50 per os, MCE) is reported as greater than 6.4, the “Therapeutic index PTZ” value ([5]; LD50 per os/ED50 per os) is reported as greater than 10.0 and the “therapeutic indices compared with the reference products” value ([5]; mouse, in vivo) is reported as “better than those of the reference products”. The LD50 at 336 h ([1]; LD50) was greater than 1000 mg/kg, the “ED50 … by MCE” value ([2]; 30 min) was 157 mg/kg and the “most effective products according to the invention” value [7] was “most effective”. The “ED50 … by PTZ” value ([3]; 30 min) was 100 mg/kg, the “protection indices compared with the reference products” value ([6]; mouse, in vivo) was “better than those of the reference products” and the selectivity ratio ([4]; Protection index MCE) was 8.6. The selectivity ratio ([4]; Protection index PTZ) was 13.5 and the TD50 at 0.5 h ([4]; TD50) was 1350 mg/kg.

In the case of `CC(=NOC(C)C)c1scnc1C` [Ex. 7], the LD50 ([5]; Table II, oral, 14 days) is reported as greater than 1000 mg/kg, the “ED50 … by MCE” value [2] is reported as greater than 200 mg/kg and the “ED50 … by PTZ” value ([3]; 30 min) is reported as 140 mg/kg.

`CON=C(C)c1sc(C)nc1C` [Ex. 26] showed an LD50 at 336 h [1, 8] greater than 1000 mg/kg, an ED50 [2] greater than 200 mg/kg and an ED50 [3] greater than 200 mg/kg.

`CO/N=C(\C)c1scnc1C` [Ex. 3, 5-(1-methoxyiminoethyl)-4-methylthiazole] showed an LD50 at 336 h [1, 8] of 570 mg/kg, an LD50 at 336 h [1, 12] of 570 mg/kg and a selectivity ratio ([1]; Therapeutic index MCE, MCE) of 5.9. For the same molecule, the selectivity ratio ([1]; Therapeutic index PTZ, PTZ) was 6.3, the ED50 [2] was 97 mg/kg and the “activity as an anticonvulsant” value ([7]; pure E isomer versus mixture E/Z=91/9) was “less active than the corresponding mixture E/Z=91/9”. For the same molecule, the ED50 [3] was 91 mg/kg, the selectivity ratio ([4]; Protection index MCE) was 3 and the selectivity ratio ([4]; Protection index PTZ) was 3.2. For the same molecule, the TD50 at 0.5 h ([4]; TD50) was 290 mg/kg.

`CCCCON=C(C)c1scnc1C` [Ex. 8, 5-(1-n-butoxyiminoethyl)-4-methylthiazole] showed an LD50 at 336 h [1, 8] of 750 mg/kg, an ED50 [2] greater than 200 mg/kg and an ED50 [3] greater than 200 mg/kg.

In the case of `CC(=NOC(C)C)c1scnc1C` [Ex. 6], the LD50 at 336 h [1, 8] is reported as greater than 1000 mg/kg, the ED50 [2] is reported as greater than 200 mg/kg and the ED50 [3] is reported as 112 mg/kg.

In the case of `CON=C(C)c1sc(C)nc1C` [Ex. 27], the LD50 ([5]; Table II, oral, 14 days, 20160 min) is reported as 1000 mg/kg, the “ED50 … by MCE” value [2] is reported as greater than 200 mg/kg and the “ED50 … by PTZ” value [3] is reported as greater than 200 mg/kg.

`CC(=NOCCN(C)C)c1scnc1C` [Ex. 20] showed an LD50 at 336 h [1, 8] greater than 1000 mg/kg, an ED50 [2] greater than 200 mg/kg and an ED50 [3] greater than 200 mg/kg.

For `CC(=NO)c1scnc1C` [Ex. 28, 5-(1-hydroxyiminoethyl)-4-methylthiazole], the LD50 at 336 h [1, 8] was 1000 mg/kg, the ED50 [2] was greater than 200 mg/kg and the ED50 [3] was 126 mg/kg.

Molecule `CC(=NOCc1cccc(Cl)c1)c1scnc1C` [Ex. 14] has an LD50 at 336 h [1, 8] greater than 1000 mg/kg, an LD50 at 336 h [1, 12] greater than 1000 mg/kg and a selectivity ratio ([1]; Therapeutic index PTZ, PTZ) greater than 7.1. It also gave an ED50 [2] greater than 200 mg/kg, an ED50 [3] of 140 mg/kg and a selectivity ratio [4, 10] of 5.4. For the same molecule, the TD50 at 0.5 h [4, 13] was 750 mg/kg.
